{"source": "PubChem BioAssay AID1259407", "about": "(Chemical Carcinogenesis Research Information System (CCRIS), 2018)", "tested_on": "CCRIS mutagenicity, Ames/micronucleus/aberration tests", "assay": "CCRIS mutagenicity studies", "note": "Active and inactive are the calls of the source. How the calls were made is not given here."}
{"smiles": "CC(C)n1c(/C=C/[C@H](O)C[C@H](O)CC(=O)O)c(-c2ccc(F)cc2)c2ccccc21", "values": [{"measurement": "mutagenic call", "setting": "End Point: AMES SALMONELLA TYPHIMURIUM, Test System: TA98, Metabolic Activation: NONE, Method: STANDARD PLATE", "result": "inactive; negative"}, {"measurement": "mutagenic call", "setting": "End Point: AMES SALMONELLA TYPHIMURIUM, Test System: TA98, Metabolic Activation: RAT, LIVER, S-9, AROCLOR 1254, Method: STANDARD PLATE", "result": "inactive; negative"}, {"measurement": "mutagenic call", "setting": "End Point: AMES SALMONELLA TYPHIMURIUM, Test System: TA100, Metabolic Activation: NONE, Method: STANDARD PLATE", "result": "inactive; negative"}, {"measurement": "mutagenic call", "setting": "End Point: AMES SALMONELLA TYPHIMURIUM, Test System: TA100, Metabolic Activation: RAT, LIVER, S-9, AROCLOR 1254, Method: STANDARD PLATE", "result": "inactive; negative"}, {"measurement": "mutagenic call", "setting": "End Point: AMES SALMONELLA TYPHIMURIUM, Test System: TA1535, Metabolic Activation: NONE, Method: STANDARD PLATE", "result": "inactive; negative"}, {"measurement": "mutagenic call", "setting": "End Point: AMES SALMONELLA TYPHIMURIUM, Test System: TA1535, Metabolic Activation: RAT, LIVER, S-9, AROCLOR 1254, Method: STANDARD PLATE", "result": "inactive; negative"}, {"measurement": "mutagenic call", "setting": "End Point: AMES SALMONELLA TYPHIMURIUM, Test System: TA1537, Metabolic Activation: NONE, Method: STANDARD PLATE", "result": "inactive; negative"}, {"measurement": "mutagenic call", "setting": "End Point: AMES SALMONELLA TYPHIMURIUM, Test System: TA1537, Metabolic Activation: RAT, LIVER, S-9, AROCLOR 1254, Method: STANDARD PLATE", "result": "inactive; negative"}, {"measurement": "mutagenic call", "setting": "End Point: AMES SALMONELLA TYPHIMURIUM, Test System: TA1538, Metabolic Activation: NONE, Method: STANDARD PLATE", "result": "inactive; negative"}, {"measurement": "mutagenic call", "setting": "End Point: AMES SALMONELLA TYPHIMURIUM, Test System: TA1538, Metabolic Activation: RAT, LIVER, S-9, AROCLOR 1254, Method: STANDARD PLATE", "result": "inactive; negative"}, {"measurement": "mutagenic call", "setting": "End Point: E. COLI, Test System: WP2 UVRA/PKM101, Metabolic Activation: NONE, Method: STANDARD PLATE", "result": "inactive; negative"}, {"measurement": "mutagenic call", "setting": "End Point: E. COLI, Test System: WP2 UVRA/PKM101, Metabolic Activation: RAT, LIVER, S-9, AROCLOR 1254, Method: STANDARD PLATE", "result": "inactive; negative"}, {"measurement": "mutagenic call", "setting": "End Point: E. COLI, Test System: WP2 UVRA, Metabolic Activation: NONE, Method: STANDARD PLATE", "result": "inactive; negative"}, {"measurement": "mutagenic call", "setting": "End Point: E. COLI, Test System: WP2 UVRA, Metabolic Activation: RAT, LIVER, S-9, AROCLOR 1254, Method: STANDARD PLATE", "result": "inactive; negative"}, {"measurement": "mutagenic call", "setting": "End Point: IN VITRO CHROMOSOMAL ABERRATIONS, Test System: CHINESE HAMSTER V79A, Metabolic Activation: NONE", "result": "inactive; negative"}, {"measurement": "mutagenic call", "setting": "End Point: IN VITRO CHROMOSOMAL ABERRATIONS, Test System: CHINESE HAMSTER V79A, Metabolic Activation: RAT, LIVER, S-9, AROCLOR 1254", "result": "inactive; negative"}, {"measurement": "mutagenic call", "setting": "End Point: IN VIVO MICRONUCLEUS, Test System: BONE MARROW POLYCHROMATIC ERYTHROCYTES, Species: MOUSE, Strain/Sex: CD-1/MALE, FEMALE, Route: GAVAGE", "result": "inactive; negative"}, {"measurement": "mutagenic call", "setting": "Test System: AMES SALMONELLA TYPHIMURIUM, Strain/Indicator: TA98, Metabolic Activation: NONE, Method: STANDARD PLATE", "result": "inactive; negative"}, {"measurement": "mutagenic call", "setting": "Test System: AMES SALMONELLA TYPHIMURIUM, Strain/Indicator: TA98, Metabolic Activation: RAT, LIVER, S-9, AROCLOR 1254, Method: STANDARD PLATE", "result": "inactive; negative"}, {"measurement": "mutagenic call", "setting": "Test System: AMES SALMONELLA TYPHIMURIUM, Strain/Indicator: TA100, Metabolic Activation: NONE, Method: STANDARD PLATE", "result": "inactive; negative"}, {"measurement": "mutagenic call", "setting": "Test System: AMES SALMONELLA TYPHIMURIUM, Strain/Indicator: TA100, Metabolic Activation: RAT, LIVER, S-9, AROCLOR 1254, Method: STANDARD PLATE", "result": "inactive; negative"}, {"measurement": "mutagenic call", "setting": "Test System: AMES SALMONELLA TYPHIMURIUM, Strain/Indicator: TA1535, Metabolic Activation: NONE, Method: STANDARD PLATE", "result": "inactive; negative"}, {"measurement": "mutagenic call", "setting": "Test System: AMES SALMONELLA TYPHIMURIUM, Strain/Indicator: TA1535, Metabolic Activation: RAT, LIVER, S-9, AROCLOR 1254, Method: STANDARD PLATE", "result": "inactive; negative"}, {"measurement": "mutagenic call", "setting": "Test System: AMES SALMONELLA TYPHIMURIUM, Strain/Indicator: TA1537, Metabolic Activation: NONE, Method: STANDARD PLATE", "result": "inactive; negative"}, {"measurement": "mutagenic call", "setting": "Test System: AMES SALMONELLA TYPHIMURIUM, Strain/Indicator: TA1537, Metabolic Activation: RAT, LIVER, S-9, AROCLOR 1254, Method: STANDARD PLATE", "result": "inactive; negative"}, {"measurement": "mutagenic call", "setting": "Test System: AMES SALMONELLA TYPHIMURIUM, Strain/Indicator: TA1538, Metabolic Activation: NONE, Method: STANDARD PLATE", "result": "inactive; negative"}, {"measurement": "mutagenic call", "setting": "Test System: AMES SALMONELLA TYPHIMURIUM, Strain/Indicator: TA1538, Metabolic Activation: RAT, LIVER, S-9, AROCLOR 1254, Method: STANDARD PLATE", "result": "inactive; negative"}, {"measurement": "mutagenic call", "setting": "Test System: CHINESE HAMSTER FIBROBLASTS, Strain/Indicator: CHINESE HAMSTER V79A/HGPRT, Metabolic Activation: NONE", "result": "inactive; negative"}, {"measurement": "mutagenic call", "setting": "Test System: CHINESE HAMSTER FIBROBLASTS, Strain/Indicator: CHINESE HAMSTER V79A/HGPRT, Metabolic Activation: RAT, LIVER, S-9, AROCLOR 1254", "result": "inactive; negative"}, {"measurement": "mutagenic call", "setting": "Test System: CHINESE HAMSTER V-79, Strain/Indicator: V-79 (HGPRT), Metabolic Activation: NONE", "result": "inactive; negative"}, {"measurement": "mutagenic call", "setting": "Test System: CHINESE HAMSTER V-79, Strain/Indicator: V-79 (HGPRT), Metabolic Activation: RAT, LIVER, S-9, AROCLOR 1254", "result": "inactive; negative"}, {"measurement": "mutagenic call", "setting": "Test System: E. COLI, Strain/Indicator: WP2 UVRA (PKM101), Metabolic Activation: NONE, Method: STANDARD PLATE", "result": "inactive; negative"}, {"measurement": "mutagenic call", "setting": "Test System: E. COLI, Strain/Indicator: WP2 UVRA (PKM101), Metabolic Activation: RAT, LIVER, S-9, AROCLOR 1254, Method: STANDARD PLATE", "result": "inactive; negative"}, {"measurement": "mutagenic call", "setting": "Test System: E. COLI, Strain/Indicator: WP2 UVRA, Metabolic Activation: NONE, Method: STANDARD PLATE", "result": "inactive; negative"}, {"measurement": "mutagenic call", "setting": "Test System: E. COLI, Strain/Indicator: WP2 UVRA, Metabolic Activation: RAT, LIVER, S-9, AROCLOR 1254, Method: STANDARD PLATE", "result": "inactive; negative"}]}
{"smiles": "CC1=C(O)C(=O)CO1", "values": [{"measurement": "mutagenic call", "setting": "Test System: AMES SALMONELLA TYPHIMURIUM, Strain/Indicator: TA100, Metabolic Activation: NONE, Method: PREINCUBATION", "result": "active; positive"}, {"measurement": "mutagenic call", "setting": "Test System: AMES SALMONELLA TYPHIMURIUM, Strain/Indicator: TA100, Metabolic Activation: RAT, LIVER, S-9, PHENOBARBITAL AND 5,6-BENZOFLAVONE, Method: PREINCUBATION", "result": "active; positive"}]}
